Experimental data from ChEMBL document CHEMBL1201862, “PubChem BioAssay data set” (2004).
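Step 1: Grow cells in 96-well plates. Step 2: Expose to compound for 48 hours at 5 concentrations. Step 3: Interpolate endpoints linearly; if unreached, use highest concentration. The concentration for 50% growth inhibition is given as GI50.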 Calls of active or inactive are those of the source. Cut-off read from the data, not from the text of the source: active = GI50 up to about 1.1 µM and inactive = higher. Positions of bridges follow the written chain, without caps; N, C: chain ends. Non-standard residues stand in square brackets, D forms with d. Residues, ends and D or L forms follow the SMILES beside them. Aib = CC(C)(N)C(=O)O; βAla = NCCC(=O)O

What was measured:
Experiment in all cases: DTP human tumour cell line panel, 48 h
[1] = test system: 786-0
[2] = test system: A498
[3] = test system: A549
[4] = test system: ACHN
[5] = test system: BT-549
[6] = test system: CAKI-1
[7] = test system: CCRF-CEM
[8] = test system: COLO 205
[9] = test system: DU-145
[10] = test system: EKVX
[11] = test system: HCC 2998
[12] = test system: HCT-116
[13] = test system: HCT-15
[14] = test system: HL-60
[15] = test system: HOP-62
[16] = test system: HOP-92
[17] = test system: HT-29
[18] = test system: Hs-578T
[19] = test system: IGROV-1
[20] = test system: K562
[21] = test system: KM12
[22] = test system: LOX IMVI
[23] = test system: M14
[24] = test system: MCF7
[25] = test system: MDA-MB-231
[26] = test system: MDA-MB-435
[27] = test system: MDA-N
[28] = test system: MOLT-4
[29] = test system: Malme-3M
[30] = test system: NCI-H226
[31] = test system: NCI-H23
[32] = test system: NCI-H460
[33] = test system: NCI-H522
[34] = test system: NCI/ADR-RES
[35] = test system: OVCAR-3
[36] = test system: OVCAR-4
[37] = test system: OVCAR-5
[38] = test system: OVCAR-8
[39] = test system: PC-3
[40] = test system: RPMI-8226
[41] = test system: RXF 393
[42] = test system: SF-268
[43] = test system: SF-295
[44] = test system: SF-539
[45] = test system: SK-MEL-28
[46] = test system: SK-MEL-2
[47] = test system: SK-MEL-5
[48] = test system: SK-OV-3
[49] = test system: SN12C
[50] = test system: SNB-19
[51] = test system: SNB-75
[52] = test system: SW-620
[53] = test system: T47D
[54] = test system: TK-10
[55] = test system: U-251
[56] = test system: UACC-257
[57] = test system: UACC-62
[58] = test system: UO-31

Which GI50 [1] does the source give for `C/C(=N/c1[nH]c(=O)cc2c1C(=O)CC2)N(C)C` here?
Its GI50 is > 200 µM (inactive).

And the GI50 [2]?
The GI50 was > 200 µM (inactive).

And the GI50 [3]?
Its GI50 is > 200 µM (inactive).

And the GI50 [4]?
The GI50 was > 200 µM (inactive).

And the GI50 [5]?
Its GI50 is > 200 µM (inactive).

What about the GI50 [6] of the same compound?
Its GI50 is > 200 µM (inactive).

What about the GI50 [7] of the same compound?
The GI50 was > 200 µM (inactive).

And the GI50 [8]?
The GI50 was > 200 µM (inactive).

And the GI50 [9]?
The GI50 was > 200 µM (inactive).

What about the GI50 [10] of the same compound?
The GI50 was > 200 µM (inactive).

What about the GI50 [11] of the same compound?
Its GI50 is > 200 µM (inactive).

What about the GI50 [12] of the same compound?
Its GI50 is > 200 µM (inactive).

And the GI50 [13]?
The GI50 was > 200 µM.

And the GI50 [14]?
Its GI50 is > 200 µM (inactive).

What about the GI50 [15] of the same compound?
Its GI50 is > 200 µM (inactive).

And the GI50 [16]?
The GI50 was > 200 µM (inactive).

What about the GI50 [17] of the same compound?
The GI50 was > 200 µM (inactive).

And the GI50 [18]?
Its GI50 is > 200 µM (inactive).

What about the GI50 [19] of the same compound?
Its GI50 is > 200 µM (inactive).

What about the GI50 [20] of the same compound?
Its GI50 is > 200 µM (inactive).

And the GI50 [21]?
The GI50 was > 200 µM (inactive).

What about the GI50 [22] of the same compound?
The GI50 was > 200 µM (inactive).

What about the GI50 [23] of the same compound?
Its GI50 is > 200 µM (inactive).

And the GI50 [24]?
Its GI50 is > 200 µM (inactive).

What about the GI50 [25] of the same compound?
Its GI50 is > 200 µM (inactive).

What about the GI50 [26] of the same compound?
The GI50 was > 200 µM (inactive).

And the GI50 [27]?
Its GI50 is > 200 µM (inactive).

What about the GI50 [28] of the same compound?
Its GI50 is > 200 µM (inactive).

What about the GI50 [29] of the same compound?
Its GI50 is > 200 µM (inactive).

What about the GI50 [30] of the same compound?
The GI50 was > 200 µM (inactive).

What about the GI50 [31] of the same compound?
The GI50 was > 200 µM (inactive).

What about the GI50 [32] of the same compound?
The GI50 was > 200 µM (inactive).

And the GI50 [33]?
Its GI50 is > 200 µM (inactive).

And the GI50 [34]?
The GI50 was > 200 µM (inactive).

What about the GI50 [35] of the same compound?
The GI50 was > 200 µM (inactive).

And the GI50 [36]?
The GI50 was > 200 µM (inactive).

What about the GI50 [37] of the same compound?
Its GI50 is > 200 µM (inactive).

What about the GI50 [38] of the same compound?
Its GI50 is > 200 µM (inactive).

And the GI50 [39]?
The GI50 was > 200 µM (inactive).

And the GI50 [40]?
The GI50 was > 200 µM (inactive).

What about the GI50 [41] of the same compound?
The GI50 was > 200 µM (inactive).

And the GI50 [42]?
Its GI50 is > 200 µM (inactive).

What about the GI50 [43] of the same compound?
Its GI50 is > 200 µM (inactive).

And the GI50 [44]?
Its GI50 is > 200 µM (inactive).

What about the GI50 [45] of the same compound?
The GI50 was > 200 µM (inactive).

And the GI50 [46]?
Its GI50 is > 200 µM (inactive).

What about the GI50 [47] of the same compound?
The GI50 was > 200 µM (inactive).

What about the GI50 [48] of the same compound?
Its GI50 is > 200 µM (inactive).

And the GI50 [49]?
The GI50 was > 200 µM (inactive).

What about the GI50 [50] of the same compound?
The GI50 was > 200 µM (inactive).

What about the GI50 [51] of the same compound?
Its GI50 is > 200 µM (inactive).

And the GI50 [52]?
The GI50 was > 200 µM (inactive).

And the GI50 [53]?
Its GI50 is > 200 µM (inactive).

What about the GI50 [54] of the same compound?
The GI50 was > 200 µM (inactive).

What about the GI50 [55] of the same compound?
The GI50 was > 200 µM (inactive).

What about the GI50 [56] of the same compound?
Its GI50 is > 200 µM (inactive).

What about the GI50 [57] of the same compound?
Its GI50 is > 200 µM (inactive).

What about the GI50 [58] of the same compound?
The GI50 was > 200 µM (inactive).

With `CC1(C)NC(=O)C(NC(=O)C(N)CC(=O)O)CCCCNC(=O)CCNC1=O` (stereo not drawn) (H-DK[Aib][βAla]; lactam 2-C; configuration not given here) as the compound, how does the GI50 [1] read?
The GI50 was > 100 µM (inactive).

And the GI50 [2]?
The GI50 was > 100 µM (inactive).

What about the GI50 [3] of the same compound?
The GI50 was > 100 µM (inactive).

And the GI50 [4]?
Its GI50 is > 100 µM (inactive).

What about the GI50 [5] of the same compound?
The GI50 was > 100 µM (inactive).

What about the GI50 [6] of the same compound?
Its GI50 is > 100 µM (inactive).

And the GI50 [7]?
Its GI50 is > 100 µM (inactive).

And the GI50 [8]?
The GI50 was > 100 µM (inactive).

And the GI50 [9]?
The GI50 was > 100 µM (inactive).

And the GI50 [10]?
The GI50 was > 100 µM (inactive).

And the GI50 [12]?
The GI50 was > 100 µM (inactive).

And the GI50 [13]?
The GI50 was > 100 µM.

And the GI50 [15]?
The GI50 was > 100 µM (inactive).

What about the GI50 [16] of the same compound?
Its GI50 is > 100 µM (inactive).

What about the GI50 [17] of the same compound?
The GI50 was > 100 µM (inactive).

What about the GI50 [18] of the same compound?
The GI50 was > 100 µM (inactive).

What about the GI50 [19] of the same compound?
Its GI50 is > 100 µM (inactive).

And the GI50 [20]?
The GI50 was > 100 µM (inactive).

And the GI50 [21]?
Its GI50 is > 100 µM (inactive).

And the GI50 [22]?
The GI50 was > 100 µM (inactive).

What about the GI50 [23] of the same compound?
The GI50 was > 100 µM (inactive).

What about the GI50 [24] of the same compound?
Its GI50 is > 100 µM (inactive).

What about the GI50 [25] of the same compound?
Its GI50 is > 100 µM (inactive).

And the GI50 [26]?
Its GI50 is > 100 µM (inactive).

And the GI50 [27]?
Its GI50 is > 100 µM (inactive).

And the GI50 [28]?
Its GI50 is > 100 µM (inactive).

What about the GI50 [29] of the same compound?
The GI50 was > 100 µM (inactive).

What about the GI50 [30] of the same compound?
The GI50 was > 100 µM (inactive).

What about the GI50 [31] of the same compound?
Its GI50 is > 100 µM (inactive).

What about the GI50 [32] of the same compound?
Its GI50 is > 100 µM (inactive).

And the GI50 [33]?
The GI50 was > 100 µM (inactive).

What about the GI50 [34] of the same compound?
The GI50 was > 100 µM (inactive).

What about the GI50 [35] of the same compound?
The GI50 was > 100 µM (inactive).

What about the GI50 [36] of the same compound?
Its GI50 is > 100 µM (inactive).

What about the GI50 [37] of the same compound?
The GI50 was > 100 µM (inactive).

And the GI50 [38]?
The GI50 was > 100 µM (inactive).

What about the GI50 [39] of the same compound?
The GI50 was > 100 µM (inactive).

What about the GI50 [40] of the same compound?
Its GI50 is > 100 µM (inactive).

What about the GI50 [41] of the same compound?
Its GI50 is > 100 µM (inactive).

And the GI50 [42]?
Its GI50 is > 100 µM (inactive).

What about the GI50 [43] of the same compound?
The GI50 was > 100 µM (inactive).

And the GI50 [44]?
Its GI50 is > 100 µM (inactive).

And the GI50 [45]?
The GI50 was > 100 µM (inactive).

And the GI50 [46]?
The GI50 was > 100 µM (inactive).

And the GI50 [47]?
Its GI50 is > 100 µM (inactive).

And the GI50 [48]?
The GI50 was > 100 µM (inactive).

And the GI50 [50]?
Its GI50 is > 100 µM (inactive).

What about the GI50 [51] of the same compound?
Its GI50 is > 100 µM (inactive).

And the GI50 [52]?
Its GI50 is > 100 µM (inactive).

What about the GI50 [53] of the same compound?
The GI50 was > 100 µM (inactive).

And the GI50 [54]?
The GI50 was > 100 µM (inactive).

And the GI50 [55]?
The GI50 was > 100 µM (inactive).

What about the GI50 [56] of the same compound?
Its GI50 is > 100 µM (inactive).

And the GI50 [57]?
Its GI50 is > 100 µM (inactive).

What about the GI50 [58] of the same compound?
Its GI50 is > 100 µM (inactive).
